According to PubChem BioAssay AID489040 (Sanford-Burnham Center for Chemical Genomics, 2010):
Activity calls are given as the source filed them.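 Rule for the calls: active = mean half-maximal activating concentration from the dose-response fit at or below a set limit; inactive = the rest.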

target: CHO-XBP1 luciferase reporter, IRE1-XBP1 UPR activation; assay: XBP1 luciferase reporter activation – CHO-XBP1 cells, luminescence, counter-screen for apoptotic UPR arm activators, dose response (AID 489040);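 note: reporter read after six hours of compound exposure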

Structure (SMILES)	EC50
Cn1nnnc1Sc1ncnc2scc(-c3ccc([N+](=O)[O-])cc3)c12	> 80 µM (inactive)
COc1ccc2c(C(=O)CCl)c[nH]c2c1	> 80 µM (inactive)
Cc1ccc(NC(=O)c2ccc([N+](=O)[O-])o2)cc1S(=O)(=O)N1CCOCC1	> 80 µM (inactive)
CCOc1cc(C=C(C(=O)OC)C(=O)OC)ccc1OCc1ccc([N+](=O)[O-])cc1	> 80 µM (inactive)
O=C(CCl)Nc1ccc(-c2ccccc2)cc1	> 80 µM (inactive)
CC(C)c1ccc(/C=C(\c2nc3ccccc3[nH]2)S(=O)(=O)c2ccccc2)cc1	> 80 µM (inactive)
Cc1ccc(/C=C2\CCC3=C2OC(N)=C(C#N)C3c2ccc(C)cc2)cc1 (stereo not drawn)	> 80 µM (inactive)
Cc1ccccc1S(=O)(=O)NC1OC(=O)C(Cl)=C1Cl (stereo not drawn)	> 80 µM (inactive)
Cc1cc(C(=O)Cn2ncc(Cl)c(Cl)c2=O)c(C)n1CC(F)(F)F	> 80 µM (inactive)
COc1cc([N+](=O)[O-])cc(/C=N/NC(=O)c2ccc(NC(=O)c3ccc(C)cc3)cc2)c1O	> 80 µM (inactive)
CS(=O)(=O)c1nc(-c2ccc(Br)cc2)cc(-c2ccccc2)c1C#N	> 80 µM (inactive)
Cc1c(C(=O)c2cccc3ccccc23)c2cccc3c2n1[C@H](CN1CCOCC1)CO3	> 80 µM (inactive)
CCc1cccc(CC)c1NC(=O)/C(C#N)=C/c1ccccc1C(F)(F)F	> 80 µM (inactive)
COc1ccc(N=c2oc3ccc(OC)cc3cc2-c2nc3ccccc3[nH]2)cc1	12.5 µM
Oc1ccc(/C=N/N2CCN(C3c4ccccc4-c4ccccc43)CC2)cc1O	18.8 µM
Oc1ccc(-c2csc(Nc3cccc4ccccc34)n2)cc1O	> 80 µM (inactive)
CCc1cc2c(=O)[nH]c(-c3ccccn3)nc2s1	> 80 µM (inactive)
Oc1c(CN2CCc3ccccc3C2)cc(Cl)c2cccnc12	> 80 µM (inactive)
CC(C)N1C/C(=C/c2ccsc2)C(=O)/C(=C/c2ccsc2)C1	> 80 µM (inactive)
C/C(=N\NC(=O)C(C)Oc1ccc([N+](=O)[O-])cc1)c1ccccn1 (stereo not drawn)	> 80 µM (inactive)
O=C(CCl)N1N=C(c2cccs2)CC1c1ccco1 (stereo not drawn)	> 80 µM (inactive)
Cc1ccc(F)cc1N=Cc1c(O)c2ccccc2oc1=O	> 80 µM (inactive)
COc1cc(C(Nc2ccccn2)c2ccc3ccc(C)nc3c2O)cc(OC)c1O (stereo not drawn)	> 80 µM (inactive)
CC(C)c1nnc(NC(=O)CCS(=O)(=O)c2nc(-c3cccs3)cc(C(F)(F)F)n2)s1	> 80 µM (inactive)
N#C/C(=C\c1ccc(OCc2ccccc2)cc1)C(=O)Nc1nc2c(s1)CCN(Cc1ccccc1)C2	> 80 µM (inactive)

Structure (SMILES)	EC50
CCCCC(CC)CN=C(N)NC(N)=NCCCCCCN=C(N)NC(N)=NCC(CC)CCCC (stereo not drawn)	> 80 µM (inactive)
CCc1nn(-c2cc(Oc3cccc4ccccc34)nc(-c3ccccc3)n2)c(N)c1C#N	inactive
O=C(Nc1nc(-c2ccc3ccccc3c2)cs1)c1ccc(N2C(=O)CCC2=O)cc1	> 80 µM (inactive)
CN1CSC(=S)N(C)C1	> 80 µM (inactive)
COc1ccccc1/C=N\Nc1cc(C)nc(-n2nc(C)cc2C)n1	> 80 µM (inactive)
O=C1C=CC(=O)C(C2=C3C(=O)N(CCc4ccccc4)CC(=O)N3CCC2)=C1	> 80 µM (inactive)
OCCNc1nc(Nc2ccc(Cl)c(Cl)c2)nc2ccccc12	> 80 µM (inactive)
COc1ccccc1-c1cc(C(F)(F)F)nc(S(C)(=O)=O)n1	> 80 µM (inactive)
Cc1ccc(C)c(NC(=S)c2ccccn2)c1	> 80 µM (inactive)
O=[N+]([O-])c1cc(O)c2ncccc2c1	> 80 µM (inactive)
Cc1cc(C)cc(NC(=O)/C(C#N)=C/c2cn(CC(=O)NCc3ccco3)c3ccccc23)c1	> 80 µM (inactive)
Clc1ccc(-n2nnnc2Sc2ncnc3sccc23)cc1	> 80 µM (inactive)
CCn1cc(C(=O)NC(=S)Nc2sc3c(c2C(=O)OC)CCCCCC3)cn1	inactive
COc1ccc(N=Nc2ccc(O)c3ncccc23)cc1	inactive
Cc1nn(Cc2c(Cl)cccc2Cl)c(C)c1NC(=O)c1cn(-c2ccccc2)nc1-c1ccccc1	> 80 µM (inactive)
CN(/N=C\c1ccc(O)c(O)c1)c1nc(-c2ccccc2)cc(-c2ccccc2)n1	4.96 µM
CC(C)(C)C(=O)OCc1nc(-c2ccc(O)c(O)c2)cs1	> 80 µM (inactive)
COc1ccc(OC)c(N=Cc2c(O)c3ccccc3oc2=O)c1	12 µM
Cc1cccc(N=Nc2ccc(O)c3ncccc23)c1	> 80 µM (inactive)
O=C(O)CC1CCC(=C(Cl)Cl)C1 (stereo not drawn)	> 80 µM (inactive)
CCCCC1CCC(C(=O)N(CCCC)c2c(N)n(CCCC)c(=O)[nH]c2=O)CC1 (stereo not drawn)	> 80 µM (inactive)
CC1=NOC(=O)/C1=C\c1ccc(-c2cccc(Cl)c2)o1	> 80 µM (inactive)
O=C1NC(=O)N(c2ccccc2)C(=O)/C1=C\C=C\c1ccccc1	> 80 µM (inactive)
CC1(C)C=Cc2c(c3c(c4c(=O)c(-c5ccc(O)cc5)coc24)OC(C)(C)CC3)O1	inactive
Oc1c(N=Nc2ccccn2)ccc2ccccc12	> 80 µM (inactive)

Structure (SMILES)	EC50
CC(C)(C)N1CSC(=S)N(Cc2ccccc2)C1	> 80 µM (inactive)
O=C(C#Cc1cccc([N+](=O)[O-])c1)c1ccccc1	> 80 µM (inactive)
Oc1ccc(CN2CCc3ccccc3C2)c2cccnc12	> 80 µM (inactive)
O=CC1=C(c2ccccc2)Oc2ccccc2O1	> 80 µM (inactive)
Brc1ccc(-c2ccc(/C=N/Nc3nncc(-c4ccccc4)n3)o2)cc1	inactive
Oc1ccc(/C=N/Nc2nc(N3CCCC3)nc(N3CCCC3)n2)cc1O	18 µM
CCc1nnc(NC(=O)CSc2nc(-c3ccccc3)cc(-c3ccc(OC)cc3)c2C#N)s1	> 80 µM (inactive)
COc1ccc(C(=O)N/N=C(\C)c2ccccn2)cc1OC	> 80 µM (inactive)
CCc1ccccc1NC(=S)N=Nc1c(O)n(C)c2ccc(S(=O)(=O)N3CCOCC3)cc12	> 80 µM (inactive)
CN1C(=O)NC(=O)/C(=C\C=C\c2ccccc2[N+](=O)[O-])C1=O	> 80 µM (inactive)
Cc1ccc(S/C=C\C(=O)c2ccccc2)cc1	> 80 µM (inactive)
Cc1cc(C(=O)CCl)c(C)n1CCc1ccccc1	> 80 µM (inactive)
Oc1ccc(CN2CCN(c3ccccc3)CC2)c2cccnc12	> 80 µM (inactive)
CCOC(=O)/C(=C\c1ccccc1)C(=O)c1cc(C(C)=O)c(Nc2ccccc2)s1	> 80 µM (inactive)
CCOc1ccc(NC(=S)NC(=O)/C=C/c2ccc(OC)c(OC)c2)c([N+](=O)[O-])c1	> 80 µM (inactive)
CCN(CC)c1ccc(C=C2C(=O)NC(=S)NC2=O)cc1	> 80 µM (inactive)
N#C/C(=C\c1ccc([N+](=O)[O-])o1)C(=O)Nc1ccc(F)cc1	> 80 µM (inactive)
Oc1cc(-c2ccncc2)cc2cccnc12	> 80 µM (inactive)
Cc1ccc(/C=C/C(=O)c2ccc([N+](=O)[O-])o2)cc1	> 80 µM (inactive)
O=C(CCl)c1ccc(Cc2ncc(C(F)(F)F)cc2Cl)s1	> 80 µM (inactive)
CCOc1ccccc1-n1c(SCC(=O)Nc2ccc(CC)cc2)nc2n[nH]c(C)c2c1=N	7.99 µM
Cc1cc(N/N=C/c2ccccc2[N+](=O)[O-])nc(-n2nc(C)cc2C)n1	> 80 µM (inactive)
O=C(COc1ccc2ccccc2c1)N1CCN(Cc2c[nH]c3ccccc23)CC1	> 80 µM (inactive)
COc1ccc(CCN2CCC(Nc3nc4ccccc4n3Cc3ccc(F)cc3)CC2)cc1	> 80 µM (inactive)
CCOC(=O)c1cc(-c2ccc(/C=C3/C(=O)N(c4ccc(C(=O)O)cc4)N=C3C)o2)ccc1Cl	> 80 µM (inactive)

Structure (SMILES)	EC50
COc1ccc(C(=O)Nc2ccccc2C(=O)N/N=C/c2ccccn2)cc1OC	> 80 µM (inactive)
COc1ccc(C(=O)Cn2c(C(=O)/C=C/c3ccccc3)nc3ccccc32)cc1	> 80 µM (inactive)
COc1ccc(Cn2c(SCc3ccc(C)cc3)nc3cc(OC)c(OC)cc3c2=N)cc1Cl	> 80 µM (inactive)
COCCN=c1scc(-c2cccs2)n1/N=C/c1ccc(O)c(O)c1O	> 80 µM (inactive)
O=S(=O)(c1ccc(Cl)cc1)c1snnc1-c1ccccc1	> 80 µM (inactive)
COc1cc2nc(NC(=O)c3ccc(Cl)cc3)sc(=O)c2cc1OC	> 80 µM (inactive)
Cc1ccc2oc(Nc3nc(-c4ccccc4)cc(=O)[nH]3)nc2c1	> 80 µM (inactive)
N#Cc1cc([N+](=O)[O-])c(-n2nnc3ccccc32)c([N+](=O)[O-])c1	inactive
O=C(/C(=C\c1ccccc1)c1nc2ccccc2[nH]1)c1ccc(Cl)cc1	> 80 µM (inactive)
CC(=O)Oc1ccc(OC(C)=O)c(SCCCCCN2CCOCC2)c1	> 80 µM (inactive)
COc1ccc(C2=CC(=O)N(Nc3ccccc3)C2=O)cc1	> 80 µM (inactive)
O=C(CCl)Nc1cccc(S(=O)(=O)NC2=NCCCCC2)c1	> 80 µM (inactive)
O=C(CN1CCN(c2ccccc2F)CC1)c1ccc(O)c(O)c1	> 80 µM (inactive)
Cc1cccc(Nc2nc3c(S(=O)(=O)c4ccccc4)nnn3c3ccccc23)c1C	inactive
CCc1cccc2sc(N3CCN(C(=O)c4ccc([N+](=O)[O-])o4)CC3)nc12	> 80 µM (inactive)
O=C(Nc1ccc2oc(-c3ccncc3)nc2c1)c1ccc([N+](=O)[O-])o1	> 80 µM (inactive)
Cc1ccc(N2C(=O)NC(=O)/C(=C/C=C/c3ccco3)C2=O)cc1	> 80 µM (inactive)
COc1ccc(-c2oc(NC(=O)CCl)c(C#N)c2-c2ccc(OC)cc2)cc1	> 80 µM (inactive)
COC(=O)C1=C(C)N(c2ccc(C)c(C)c2)/C(=C/c2ccco2)C1=O	> 80 µM (inactive)
O=C(NCc1cccnc1)/C(=C\c1ccc(-c2ccc(Br)cc2)o1)S(=O)(=O)c1ccccc1	> 80 µM (inactive)
CCOC(=O)C(=CNc1nc(-c2ccccc2)c(C(=O)Nc2ccc(-c3ccccc3)cc2)s1)C(=O)OCC	inactive
COc1ccc(C2Nc3ccc4ccccc4c3-c3c2c(=O)oc2ccccc32)cc1 (stereo not drawn)	9.62 µM
Cc1cccc(Nc2nc(-c3ccccn3)cs2)n1	> 80 µM (inactive)
